Test results reported in the supplement of paper PMC11061612.

What was measured:
Test in all cases: Bliss excess, mean over the matrix (fraction); higher = more synergy
[1] = test system: SKN-3 (Head and Neck Carcinoma)
Procedure, shortened: (§1)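 After 24 hours at 37°C and 5% CO2 in 1536-well plates, cells in DMEM/F12 or RPMI plus 10% FBS received two-drug dose matrices for 72 hours. Viability came from CellTiter-Glo 2.0 luminescence and was scaled as inhibition, anchored at 0 by vehicle wells and at 1 by blank wells. Combination Emax is taken as the second-highest inhibition in the matrix, and Bliss excess as the observed combination effect less EA + EB − EA·EB, with EA and EB the single-agent effects.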

[2] = test system: HLE (Hepatocellular Carcinoma)
Procedure, shortened: as §1

[3] = test system: A172 (Glioblastoma)
Procedure, shortened: as §1

[4] = test system: HCC38 (Breast Carcinoma)
Procedure, shortened: as §1

[5] = test system: WSU-DLCL2 (B-Cell Non-Hodgkin's Lymphoma)
Procedure, shortened: as §1

[6] = test system: MES-SA (Other Solid Carcinomas)
Procedure, shortened: as §1

[7] = test system: HCT-116 (Colorectal Carcinoma)
Procedure, shortened: as §1

[8] = test system: MCF7 (Breast Carcinoma)
Procedure, shortened: as §1

[9] = test system: MSTO-211H (Mesothelioma)
Procedure, shortened: as §1

[10] = test system: H4 (Low Grade Glioma)
Procedure, shortened: as §1

[11] = test system: DOK (Oral Cavity Carcinoma)
Procedure, shortened: as §1

[12] = test system: CAL-39 (Other Solid Carcinomas)
Procedure, shortened: as §1

[13] = test system: HOP-92 (Non-Small Cell Lung Carcinoma)
Procedure, shortened: as §1

[14] = test system: SNU-61 (Colorectal Carcinoma)
Procedure, shortened: as §1

[15] = test system: HCC1143 (Breast Carcinoma)
Procedure, shortened: as §1

[16] = test system: SW48 (Colorectal Carcinoma)
Procedure, shortened: as §1

[17] = test system: 647-V (Bladder Carcinoma)
Procedure, shortened: as §1

[18] = test system: U-118-MG (Low Grade Glioma)
Procedure, shortened: as §1

[19] = test system: D-283MED (Other Solid Carcinomas)
Procedure, shortened: as §1

[20] = test system: HuO9 (Osteosarcoma)
Procedure, shortened: as §1

Row | SMILES | Bliss excess [1] | Bliss excess [2] | Bliss excess [3] | Bliss excess [4] | Bliss excess [5] | Bliss excess [6] | Bliss excess [7] | Bliss excess [8] | Bliss excess [9] | Bliss excess [10] | Bliss excess [11] | Bliss excess [12] | Bliss excess [13] | Bliss excess [14] | Bliss excess [15] | Bliss excess [16] | Bliss excess [17] | Bliss excess [18] | Bliss excess [19] | Bliss excess [20]
1 | COc1nnc2ccc(N3CCC(c4ccc(OCCN5CCN(C)C(=O)[C@H]5C)cc4)CC3)nn12 [AZD5153] + Cn1cnc2c(F)c(Nc3ccc(Br)cc3Cl)c(C(=O)NOCCO)cc21 [Selumetinib] (first compound max 1 µM, 7x7, partner max 10 µM) | -0.019 | 0.0073 | -0.0304 | -0.0392 | -0.0365 | 0.0199 | -0.029 | -0.0307 | 0.007 | -0.0184 | -0.0297 | -0.0175 | 0.0604 | 0.0407 | 0.0561 | 0.0619 | 0.0604 | -0.016 | -0.0211 | 0.0052
2 | CCN(CCO)CCCOc1ccc2c(Nc3cc(CC(=O)Nc4cccc(F)c4)[nH]n3)ncnc2c1 [AZD2811] + C=CCn1c(=O)c2cnc(Nc3ccc(N4CCN(C)CC4)cc3)nc2n1-c1cccc(C(C)(C)O)n1 [AZD1775] (first compound max 1 µM, partner max 1 µM) | -0.0154 | 0.09 | -0.0033 | -0.0672 | 0.013 | 0.0752 | 0.0524 | 0.0165 | 0.0387 | -0.0637 | -0.0017 | -0.0078 | -0.0161 | 0.0108 | 0.0147 | -0.013 | 0.0491 | 0.0469 | 0.0452 | 0.0204
3 | CN(CCO)CC[C@H](CSc1ccccc1)Nc1ccc(S(=O)(=O)NC(=O)c2ccc(N3CCC([C@@H](O)c4ccccc4-c4ccc(Cl)cc4)CC3)cc2)cc1S(=O)(=O)C(F)(F)F [AZD4320] + CCN(CCO)CCCOc1ccc2c(Nc3cc(CC(=O)Nc4cccc(F)c4)[nH]n3)ncnc2c1 [AZD2811] (first compound max 1 µM, 7x7, partner max 1 µM) | -0.0333 | 0.0338 | 0.0322 | 0.044 | 0.201 | 0.0657 | 0.108 | 0.0189 | 0.0471 | 0.0036 | 0.0043 | 0.0236 | 0.0573 | -0.0262 | -0.0091 | -0.0226 | 0.114 | -0.0148 | 0.0522 | 0.0376
4 | Cc1c2c(nn1C)CSCc1cc(n(C)n1)CSc1cc(c3ccccc3c1)OCCCc1c(C(=O)O)n(C)c3c-2c(Cl)ccc13 [AZD5991] + CCN(CCO)CCCOc1ccc2c(Nc3cc(CC(=O)Nc4cccc(F)c4)[nH]n3)ncnc2c1 [AZD2811] (first compound max 1 µM, 7x7, partner max 1 µM) | 0.0134 | -0.0018 | -0.0101 | 0.058 | 0.0804 | 0.138 | 0.0295 | 0.0081 | 0.0477 | 0.0207 | 0.0524 | -0.0192 | 0.0184 | 0.0315 | 0.0514 | -0.0063 | 0.0896 | 0.0042 | 0.051 | -0.0035
5 | CN(CCO)CC[C@H](CSc1ccccc1)Nc1ccc(S(=O)(=O)NC(=O)c2ccc(N3CCC([C@@H](O)c4ccccc4-c4ccc(Cl)cc4)CC3)cc2)cc1S(=O)(=O)C(F)(F)F [AZD4320] + C[C@@H]1COCCN1C2=NC(=NC(=C2)C3(CC3)[S@](=N)(=O)C)C4=C5C=CNC5=NC=C4 [AZD6738] (first compound max 1 µM, 7x7, partner max 10 µM) | -0.0127 | 0.0036 | -0.0748 | 0.0306 | 0.0329 | -0.0382 | -0.0143 | -0.0145 | 0.0002 | -0.0249 | -0.0269 | -0.0685 | 0.0076 | -0.0406 | -0.0812 | 0.0245 | -0.0222 | -0.0285 | 0.0139 | -0.0242
6 | COc1cc2ncnc(Nc3ccc(F)c(Cl)c3)c2cc1OCCCN1CCOCC1 [Gefitinib] + CC(C)n1c(=O)n(C)c2cnc3cc(F)c(-c4ccc(OCCCN5CCCCC5)nc4)cc3c21 [AZD1390] (first compound max 10 µM, 7x7, partner max 0.3 µM) | -0.0688 | -0.0487 | -0.0554 | -0.0485 | 0.0143 | -0.0458 | -0.0453 | -0.0395 | -0.0571 | -0.0806 | -0.0341 | -0.0004 | -0.0439 | -0.0929 | -0.0572 | -0.0516 | -0.0735 | -0.0498 | -0.0426 | -0.058
7 | Cc1cc2ncnn2cc1Nc1ncc2c(n1)n(C1CCOCC1)c(=O)n2C [AZD7648] + C=CCn1c(=O)c2cnc(Nc3ccc(N4CCN(C)CC4)cc3)nc2n1-c1cccc(C(C)(C)O)n1 [AZD1775] (first compound max 10 µM, partner max 1 µM) | -0.0033 | -0.0273 | 0.0587 | -0.0124 | -0.0048 | -0.0182 | 0.008 | 0.0442 | 0.067 | -0.082 | 0.0331 | -0.0211 | -0.0022 | -0.049 | -0.0183 | -0.0702 | 0.0132 | -0.0041 | -0.0959 | -0.0298
